Tests used:
[1] = Moisture sorption / deliquescence of the salt versus relative humidity; assay type: physicochemical
[2] = Intrinsic dissolution rate, low-volume rotating disc method; assay type: physicochemical; conditions: salt made at 1 g scale from ethanol; disc 0.07 cm^2, 500 rpm, 50 mL USP Phosphate buffer pH 6.8 at 37° C.
Description: The salt manufactured at 1 g scale from ethanol was further investigated for its intrinsic dissolution rate and compared to the free base of 4-(5-{(1R)-1-[5-(3-chlorophenyl)isoxazol-3-yl]ethoxy}-4-methyl-4H-1,2,4-triazol-3-yl)pyridine. […] Dissolution rates of the base and salt were measured with a low-volume rotating disc method. Discs were compressed from pure compound and centrically mounted in a disc holder with an exposed area of 0.07 cm^2. The disc holder rotated at 500 rpm immersed in 50 mL USP Phosphate buffer pH 6.8 at 37° C. The compound was analyzed UV-Online by a Spectrophotometer with a flow cell and a peristaltic pump with continuous circulation.

increased moisture sorption at relative humidity ([1]; crystalline hydrochloride salt) | intrinsic dissolution rate as compared to the free base [2] | deliquesce at relative humidity ([1]; first batch, oiled salt recrystallised in ethanol) | deliquesce at relative humidity ([1]; second batch, salt manufactured from ethanol at 68° C.) | Compound
90-95 % RH | 1000 times | – | – | C[C@@H](Oc1nnc(-c2ccncc2)n1C)c1cc(-c2cccc(Cl)c2)on1.Cl [Example 17, 4-(5-{(1R)-1-[5-(3chlorophenyl)isoxazol-3-yl]ethoxy}-4-methyl-4H-1,2,4-triazol-3-yl)pyridine hydrochloride]
– | – | 60-70 % relative humidity | 70-80 % RH | C[C@@H](Oc1nnc(-c2ccncc2)n1C)c1cc(-c2cccc(Cl)c2)on1.O=S(=O)(O)O [Example 18, 4-(5-{(1R)-1-[5-(3-chlorophenyl)isoxazol-3-yl]ethoxy}-4-methyl-4H-1,2,4-triazol-3-yl)pyridine sulphate]
